The results in this text go back to the NIST ThermoML archive (doi:10.1016/j.jct.2015.08.010).

SMILES strings stand for the structures. Numbers after ± are expanded uncertainties.

The conditions of series [1]: 100 kPa, Liquid; for viscosity: Falling or rolling sphere viscometry; for mass density: Vibrating tube method.
Series [2] in a line: xn = mol fraction of the nth substance listed. The settings on record: 100 kPa, Liquid, Falling or rolling sphere viscometry, x2 = 0.

Broadly, the viscosity is the resistance of a fluid to flow. By mass density is commonly meant the mass of a sample divided by its volume. With `C1CCC2=NCCC[NH+]2CC1.c1c[n-]cn1` [1,8-diazabicyclo[5.4.0]undec-7-enium imidazolide], the viscosity in series [1] (293.15 K) was 47.82 ± 1.2 mPa·s; in series [1] (298.15 K) it was 34.94 ± 0.85 mPa·s; in series [1] (303.15 K) it was 26.36 ± 0.64 mPa·s; in series [1] (308.15 K), 20.5 ± 0.49 mPa·s; in series [1] (313.15 K) it was 16.28 ± 0.39 mPa·s. Moreover, the mass density in series [1] (293.15 K) came to 1053.63 ± 4.3 kg/m3; in series [1] (298.15 K) it was 1049.78 ± 4.3 kg/m3; in series [1] (303.15 K), 1045.94 ± 4.3 kg/m3; in series [1] (308.15 K), 1042.11 ± 4.2 kg/m3; in series [1] (313.15 K) it was 1038.28 ± 4.2 kg/m3.
Regarding `O` [water], the viscosity is given as 1.002 ± 0.021 mPa·s in series [1] (293.15 K); 0.89 ± 0.02 mPa·s in series [1] (298.15 K); 0.797 ± 0.017 mPa·s in series [1] (303.15 K); 0.718 ± 0.015 mPa·s in series [1] (308.15 K); 0.651 ± 0.014 mPa·s in series [1] (313.15 K).
With `O` [water] + C1CCC2=NCCC[NH+]2CC1.c1c[n-]cn1, the viscosity is recorded as 1.002 ± 0.021 mPa·s in series [2] (293.15 K); 0.89 ± 0.02 mPa·s in series [2] (298.15 K); 0.797 ± 0.017 mPa·s in series [2] (303.15 K); 0.718 ± 0.015 mPa·s in series [2] (308.15 K); 0.651 ± 0.014 mPa·s in series [2] (313.15 K).
